Source: publication PMC8744835, “Sterically Hindered Quaternary Phosphonium Salts (QPSs): Antimicrobial Activity and Hemolytic and Cytotoxic Properties” (International Journal of Molecular Sciences, 2021)

Key:
[1] = test system: Candida albicans ATCC 10231; experiment: Fungicidal activity, serial dilution technique; assay type: cell-based; conditions: average of three ± SD, - means non-active
Procedure, shortened: (§1)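 Inoculum 3.0 × 10^5 cfu/mL; serial dilution, MH Broth 2; 37 °C; read q24 h × 5 d; MIC = lowest inhibitory conc.; n = 3.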

[2] = test system: Trichophyton mentagrophytes var. gypseum 1773; experiment: Fungicidal activity, serial dilution technique; assay type: cell-based; conditions: Tm; average of three ± SD; - means non-active
Procedure, shortened: as §1

[3] = test system: Escherichia coli ATCC 25922; experiment: Antimicrobial activity, serial dilution technique in Mueller–Hinton Broth 2; assay type: cell-based; conditions: Escherichia coli, ATCC25922, Ec; average of three ± SD; - means non-active; read-out: Minimum Bactericidal and Fungicidal Concentration (MBC, MFC), Ec
[4] = test system: methicillin-resistant S. aureus MRSA-2; experiment: as above; assay type: cell-based, Staphylococcus aureus; conditions: - means non-active
Procedure, shortened: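 Antimicrobial activity against methicillin-susceptible Staphylococcus aureus MRSA-2, a beta-lactam-resistant clinical isolate from a sinusitis patient at the Republican Clinical Hospital (Kazan), was assessed by serial dilution in Mueller–Hinton Broth 2. The inoculum was 3.0 × 10^5 cfu/mL. Cultures were incubated at 37 °C and read every 24 h for 5 days, in three repeat experiments.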

[5] = test system: methicillin-resistant S. aureus MRSA-1; experiment: as above; assay type: cell-based, Staphylococcus aureus; conditions: - means non-active
Procedure, shortened: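 Antimicrobial activity against methicillin-susceptible Staphylococcus aureus MRSA-1, a hospital isolate from a chronic tonsillitis patient that is resistant to fluoroquinolones and beta-lactams, was determined by serial dilution in Mueller–Hinton Broth 2. The bacterial load was 3.0 × 10^5 cfu/mL, incubation was at 37 °C, and growth was recorded every 24 h for 5 days.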

[6] = test system: Bacillus cereus ATCC 10702 NCTC 8035; experiment: as above; assay type: cell-based; conditions: Bacillus cereus, Bc, average of three ± SD, - means non-active
Procedure, shortened: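 Antibacterial activity against Bacillus cereus ATCC 10702 NCTC 8035 was measured by serial dilution in Mueller–Hinton Broth 2 at a bacterial load of 3.0 × 10^5 cfu/mL. Cultures were kept at 37 °C and growth was read every 24 h for 5 days. The experiment was done three times, and MIC and bactericidal concentrations were determined.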

[7] = test system: Staphylococcus aureus ATCC 6538P FDA 209P; experiment: as above; assay type: cell-based; conditions: Staphylococcus aureus, Sa, average of three ± SD, - means non-active
Procedure, shortened: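 Antimicrobial activity against Staphylococcus aureus ATCC 6538P FDA 209P was measured by serial dilution in Mueller–Hinton Broth 2 at a bacterial load of 3.0 × 10^5 cfu/mL. Cultures were incubated at 37 °C, growth was recorded every 24 h for 5 days, and the experiment was done three times.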

[8] = test system: Enterococcus faecalis ATCC 2921; experiment: as above; assay type: cell-based; conditions: Ef; average of three ± SD; - means non-active
Procedure, shortened: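 Antibacterial activity against Enterococcus faecalis ATCC 2921 was assessed by serial dilution in Mueller–Hinton Broth 2 with a bacterial load of 3.0 × 10^5 cfu/mL. Cultures were incubated at 37 °C, with growth recorded every 24 h for 5 days, and the experiment was performed three times.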

[9] = test system: Pseudomonas aeruginosa ATCC 9027; experiment: as above; assay type: cell-based; conditions: Pseudomonas aeruginosa, ATCC9027, Pa, average of three ± SD, - means non-active
[10] = test system: Escherichia coli ATCC 25922; experiment: as above; assay type: cell-based; conditions: Escherichia coli, ATCC25922, Ec; average of three ± SD; - means non-active; read-out: Minimum Inhibitory Concentration (MIC), Ec
Procedure, shortened: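 Compounds were serially diluted in Mueller–Hinton Broth 2 and inoculated at 3.0 × 10^5 cfu/mL. Cultures were then incubated at 37 °C with growth recorded daily for 5 days. The MIC was taken as the minimum concentration inhibiting growth, from three experiments.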

S. aureus = experiment: Zone-of-inhibition test of coated PC+ plastic sample; assay type: cell-based, Staphylococcus aureus; conditions: PC+ sample immersed 1 min in 1% solution of 12a in ethanol, 37 °C 24 h
Procedure: (§2) The inhibition-zone test is a quick and qualitative way to measure the ability of an antimicrobial agent to suppress microbial growth. The sensitivity of the method is quite high and even a small amount of residual biocide in a model system can be detected. […] In this experiment, we used cultures of the bacteria P. aeruginosa and S. aureus. First, the microbial suspension was spread on a sterile agar plate. Then, a plastic sample (PC+), which was preliminarily immersed for 1 min in a 1% solution of compound 12a in ethanol, was placed in the center of the Petri dish with agar. During the incubation period, the inoculum bacteria can only grow where is no antimicrobial agent. If the active agent is washed out of the sample into the environment (in this case, agar), bacterial growth in the area around the sample is suppressed. The width of this area is determined by the diffusion of the active compound in the vicinity. […] From the results obtained, it is clear that a relatively stable surface coating was achieved using a simple experimental procedure.
(§3) This sample was tested for possible release of the active compound. Tests were performed on a culture of Gram-negative bacteria P. aeruginosa and Gram-positive bacteria S. aureus. […] Then, Petri dishes were placed in an incubator at 37 °C for 24 h, and the presence of inhibition zones was evaluated.

P. aeruginosa = experiment: as above; assay type: cell-based, Pseudomonas aeruginosa; conditions: PC+ sample immersed 1 min in 1% solution of 12a in ethanol, 37 °C 24 h
Procedure: as §2, §3

## CCCCCCCCCCCC[P+](C(C)(C)C)(C(C)(C)C)C(C)(C)C [Compound 12a, tri-tert-butyl(n-dodecyl)phosphonium]
[1]; Ca
  Minimum Bactericidal and Fungicidal Concentration (MBC, MFC), Ca: 31.3 ± 2.7 µg/mL
[1]; Candida albicans, ATCC10231, Ca, read-out: Minimum Inhibitory Concentration (MIC), Ca
  MIC: 15.6 ± 1.4 µg/mL
[2]
  Minimum Bactericidal and Fungicidal Concentration (MBC, MFC), Tm: 15.6 ± 1.3 µg/mL
  Minimum Inhibitory Concentration (MIC), Tm: 15.6 ± 1.2 µg/mL
[3]
  MBC: 7.8 ± 0.7 µg/mL
[4]; MRSA-2
  Minimum Bactericidal and Fungicidal Concentration (MBC, MFC), MRSA-2: 7.8 ± 0.6 µg/mL
[4]; Staphylococcus aureus, MRSA, MRSA-2 (resistant to beta-lactams), read-out: Minimum Inhibitory Concentration (MIC), MRSA-2
  MIC: 0.5 ± 0.03 µg/mL
[5]; MRSA-1 (resistant to fluoroquinolones and beta-lactams)
  Minimum Inhibitory Concentration (MIC), MRSA-1: 0.5 ± 0.03 µg/mL
[5]; Staphylococcus aureus, MRSA, MRSA-1, read-out: Minimum Bactericidal and Fungicidal Concentration (MBC, MFC), MRSA-1
  MBC: 0.5 ± 0.04 µg/mL
[6]; read-out: Minimum Bactericidal and Fungicidal Concentration (MBC, MFC), Bc
  MBC: 62.5 ± 5.3 µg/mL
[6]; read-out: Minimum Inhibitory Concentration (MIC), Bc
  MIC: 1.9 ± 0.01 µg/mL
[7]; read-out: Minimum Bactericidal and Fungicidal Concentration (MBC, MFC), Sa
  MBC: 0.5 ± 0.03 µg/mL
[7]; read-out: Minimum Inhibitory Concentration (MIC), Sa
  MIC: 0.5 ± 0.03 µg/mL
[8]
  Minimum Bactericidal and Fungicidal Concentration (MBC, MFC), Ef: 1.9 ± 0.1 µg/mL
  Minimum Inhibitory Concentration (MIC), Ef: 0.9 ± 0.06 µg/mL
[9]; read-out: Minimum Bactericidal and Fungicidal Concentration (MBC, MFC), Pa
  MBC: 125 ± 11 µg/mL
[9]; read-out: Minimum Inhibitory Concentration (MIC), Pa
  MIC: 62.5 ± 5.5 µg/mL
[10]
  MIC: 7.8 ± 0.6 µg/mL
S. aureus
  zone of inhibition: no zones of inhibition
P. aeruginosa
  zone of inhibition: no zones of inhibition
